As usually defined, the EC50 is the concentration giving half of the maximal effect.

Results on 15 compounds are retold here after patent US20260007758A1, “SO[…]-2 RECEPTOR (SST2R) NON-PEPTIDE DRUG CONJUGATES AND USES THEREOF” (Crinetics Pharmaceuticals, Inc., priority 2024, published 2026).

What all share (type): cell-based
Assay [1] concerns the target T1, human somatostatin receptor subtype 2 (Homo sapiens, UniProt P30874).
T1 construct: expressed in transfected cells
Description: Functional assay for SSTR2 agonists (HTRF cAMP). To be noted: CHO-K1 cells stably expressing human SST2; NKH477-stimulated cAMP; 20 min at 37 C; read-out: hSST2 cAMP Avg EC50. In outline:
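Agonist activity read as fall in intracellular cAMP: HTRF 665/620 nm ratio regressed to a cAMP standard curve, EC50 fitted. Stable human SSTR2 CHO-K1 cells exposed 20 min at 37 °C to compound, final concentrations typically 0-10,000 nM.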
For orientation: Time-resolved FRET reads energy transfer from a long-lived donor to a nearby acceptor.

For assay [2], the target named is T2, SST2 (Homo sapiens, UniProt P30874).
T2 construct: host or cells: PathHunter CHO-K1 SST2 cells
T2 sequence (P30874 whole entry): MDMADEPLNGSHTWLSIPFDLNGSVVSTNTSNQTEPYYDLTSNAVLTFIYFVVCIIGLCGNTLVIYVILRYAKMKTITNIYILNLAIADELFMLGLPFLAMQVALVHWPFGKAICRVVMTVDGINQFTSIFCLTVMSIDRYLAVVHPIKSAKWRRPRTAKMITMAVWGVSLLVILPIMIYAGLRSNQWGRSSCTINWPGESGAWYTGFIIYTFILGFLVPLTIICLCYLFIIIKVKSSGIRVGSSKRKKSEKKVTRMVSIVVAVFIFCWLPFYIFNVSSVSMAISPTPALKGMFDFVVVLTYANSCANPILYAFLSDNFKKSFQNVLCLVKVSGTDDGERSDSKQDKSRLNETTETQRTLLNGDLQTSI
Description: PathHunter CHO-K1 SST2 Internalization Assay. The following applies: PathHunter CHO-K1 SST2 cells; 90 min at 37 C; luminescence; read-out: Internalization EC50. An outline of the steps:
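Four-parameter nonlinear fits of background-corrected luminescence (duplicate means) gave IC50s. NDCs were serially diluted 1:3 over 11 points from a 10 uM final top concentration and incubated 90 min at 37 C with human SST2 CHO-K1 cells plated 48 h earlier at 2500/well. Beta-Glo read-out developed 60 min at RT.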

For assay [3], the system named is NCI-H524 human small cell lung cancer cells. Kind of assay: H524 assay: inhibition of cell proliferation (CellTiter Glo). To be noted: 2 h treatment, washout, additional 70 h incubation. An outline of the steps:
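Proliferation was measured by CellTiter Glo 70 h after a washout that followed a 2 h pulse of NDC. Doses were an 11-point, two-fold dilution series from 1 uM. IC50 was fitted with a four-parameter model to luminescence-based % inhibition relative to control cells.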
On the technique in general: In ATP-based viability assays light output follows the ATP content of the culture.

T1 sequence (P30874 whole entry): as above

As to `CC[C@H](C)[C@@H]([C@@H](CC(=O)N1CCC[C@H]1[C@H](OC)[C@@H](C)C(=O)N[C@H](C)[C@@H](O)c1ccccc1)OC)N(C)C(=O)[C@@H](NC(=O)[C@H](C(C)C)N(C)C(=O)OCc1ccc(NC(=O)[C@H](C)NC(=O)[C@@H](NC(=O)C[C@@H](N)C(=O)NCCOCCOCCC(=O)NCCNc2ncc(-c3cc(C)cc(F)c3)c(N3CCC(N)CC3)c2-c2nc3ccc(Cl)cc3[nH]2)C(C)C)c(O[C@@H]2O[C@H](C(=O)O)[C@@H](O)[C@H](O)[C@H]2O)c1)C(C)C` [Compound 136], the EC50 was 0.29 nM in assay [1], 3.5 nM in assay [2] and 540 nM in assay [3].

For the compound `CC[C@H](C)[C@@H]([C@@H](CC(=O)N1CCC[C@H]1[C@H](OC)[C@@H](C)C(=O)N[C@H](C)[C@@H](O)c1ccccc1)OC)N(C)C(=O)[C@@H](NC(=O)[C@H](C(C)C)N(C)C(=O)OCc1ccc(NC(=O)[C@H](CCCNC(N)=O)NC(=O)[C@@H](NC(=O)C2(C(=O)NCCOCCC(=O)NCCNc3ncc(-c4cc(C)cc(F)c4)c(N4CCC(N)CC4)c3-c3nc4ccc(Cl)cc4[nH]3)CCC2)C(C)C)cc1C(=O)NCCN)C(C)C` [Compound 81], the EC50 came out at 0.094 nM in assay [1], 10 nM in assay [2] and 2 nM in assay [3].

For `CC[C@H](C)[C@@H]([C@@H](CC(=O)N1CCC[C@H]1[C@H](OC)[C@@H](C)C(=O)N[C@H](C)[C@@H](O)c1ccccc1)OC)N(C)C(=O)[C@@H](NC(=O)[C@H](C(C)C)N(C)C(=O)OCc1ccc(NC(=O)[C@H](CCCNC(N)=O)NC(=O)[C@@H](NC(=O)CCOCCC(=O)NCCNc2ncc(-c3cc(C)cc(F)c3)c(N3CCC(N)CC3)c2-c2nc3ccc(Cl)cc3[nH]2)C(C)C)cc1C(=O)NOC)C(C)C` [Compound 87], the EC50 is 0.1 nM in assay [1], 4.6 nM in assay [2] and 600 nM in assay [3].

`CC[C@H](C)[C@@H]([C@@H](CC(=O)N1CCC[C@H]1[C@H](OC)[C@@H](C)C(=O)N[C@H](C)[C@@H](O)c1ccccc1)OC)N(C)C(=O)[C@@H](NC(=O)[C@H](C(C)C)N(C)C(=O)OCc1ccc(NC(=O)[C@H](CCCNC(N)=O)NC(=O)[C@@H](NC(=O)C[C@@H](N)C(=O)NCCOCCOCCOCCOCCC(=O)NCCNc2ncc(-c3cc(C)cc(F)c3)c(N3CCC(NC)CC3)c2-c2nc3ccc(Cl)cc3[nH]2)C(C)C)c(O[C@@H]2O[C@H](C(=O)O)[C@@H](O)[C@H](O)[C@H]2O)c1)C(C)C` [Compound 122]: the concentration giving a half-maximal response (EC50) in assay [1] was determined as 0.19 nM; in assay [2] it was 8.8 nM; in assay [3], 27 nM.

On to `CC[C@H](C)[C@@H]([C@@H](CC(=O)N1CCC[C@H]1[C@H](OC)[C@@H](C)C(=O)N[C@H](C)[C@@H](O)c1ccccc1)OC)N(C)C(=O)[C@@H](NC(=O)[C@H](C(C)C)N(C)C(=O)OCc1ccc(NC(=O)[C@H](CCCNC(N)=O)NC(=O)[C@@H](NC(=O)c2cc(NC(=O)C[C@@H](N)C(=O)NCCOCCC(=O)NCCNc3ncc(-c4cc(C)cc(F)c4)c(N4CCC(N)CC4)c3-c3nc4ccc(Cl)cc4[nH]3)cc(C(=O)NCC(=O)O)c2)C(C)C)cc1)C(C)C` [Compound 156], for which the EC50 came to 0.28 nM in assay [1], 14 nM in assay [2] and 140 nM in assay [3].

As to `CC[C@H](C)[C@@H]([C@@H](CC(=O)N1CCC[C@H]1[C@H](OC)[C@@H](C)C(=O)N[C@H](C)[C@@H](O)c1ccccc1)OC)N(C)C(=O)[C@@H](NC(=O)[C@H](C(C)C)N(C)C(=O)OCc1ccc(NC(=O)[C@H](C)NC(=O)[C@@H](NC(=O)CN(C)C(=O)CCOCCC(=O)NCCNc2ncc(-c3cc(C)cc(F)c3)c(N3CCC(N)CC3)c2-c2nc3ccc(Cl)cc3[nH]2)C(C)C)c(O[C@@H]2O[C@H](C(=O)O)[C@@H](O)[C@H](O)[C@H]2O)c1)C(C)C` [Compound 111], the results for the EC50 in assay [1], in assay [2] and in assay [3] were 0.046 nM, 8.7 nM and 19 nM, respectively.

Take `CC[C@H](C)[C@@H]([C@@H](CC(=O)N1CCC[C@H]1[C@H](OC)[C@@H](C)C(=O)N[C@H](C)[C@@H](O)c1ccccc1)OC)N(C)C(=O)[C@@H](NC(=O)[C@H](C(C)C)N(C)C(=O)OCc1ccc(NC(=O)[C@H](CCCNC(N)=O)NC(=O)[C@@H](NC(=O)[C@H](CCC(=O)O)NC(=O)CCOCCC(=O)NCCNc2ncc(-c3cc(C)cc(F)c3)c(N3CCC(N)CC3)c2-c2nc3ccc(Cl)cc3[nH]2)C(C)C)c(C)c1)C(C)C` [Compound 15]: the values for the EC50 in assay [1], in assay [2] and in assay [3] were 0.27 nM, 17 nM and 91 nM, respectively.

Consider `CC[C@H](C)[C@@H]([C@@H](CC(=O)N1CCC[C@H]1[C@H](OC)[C@@H](C)C(=O)N[C@H](C)[C@@H](O)c1ccccc1)OC)N(C)C(=O)[C@@H](NC(=O)[C@H](C(C)C)N(C)C(=O)OCc1ccc(NC(=O)[C@H](CCCNC(N)=O)NC(=O)[C@@H](NS(=O)(=O)C[C@H](C)NC(=O)CCOCCC(=O)NCCNc2ncc(-c3cc(C)cc(F)c3)c(N3CCC(N)CC3)c2-c2nc3ccc(Cl)cc3[nH]2)C(C)C)c(O[C@@H]2O[C@H](C(=O)N(C)CC(=O)O)[C@@H](O)[C@H](O)[C@H]2O)c1)C(C)C` [Compound 220], for which the EC50 in assay [1] came out at 0.077 nM; in assay [2], 3.1 nM; in assay [3], 7.6 nM.

For `CC[C@H](C)[C@@H]([C@@H](CC(=O)N1CCC[C@H]1[C@H](OC)[C@@H](C)C(=O)N[C@H](C)[C@@H](O)c1ccccc1)OC)N(C)C(=O)[C@@H](NC(=O)[C@H](C(C)C)N(C)C(=O)OCc1ccc(NC(=O)[C@H](CCCNC(N)=O)NC(=O)[C@@H](NC(=O)[C@@H](NC(=O)CCOCCC(=O)NCCNc2ncc(-c3cc(C)cc(F)c3)c(N3CCC(N)CC3)c2-c2nc3ccc(Cl)cc3[nH]2)c2cnn(C)c2)C(C)C)c(OCC(=O)O)c1)C(C)C` [Compound 203], the EC50 in assay [1] stood at 0.11 nM; in assay [2], 7.7 nM; in assay [3] it was 71 nM.

Take `CC[C@H](C)[C@@H]([C@@H](CC(=O)N1CCC[C@H]1[C@H](OC)[C@@H](C)C(=O)N[C@H](C)[C@@H](O)c1ccccc1)OC)N(C)C(=O)[C@@H](NC(=O)[C@H](C(C)C)N(C)C(=O)OCc1ccc(NC(=O)[C@H](CCCNC(N)=O)NC(=O)[C@@H](NC(=O)CCOCCC(=O)NCCNc2ncc(-c3cc(C)cc(F)c3)c(N3CCC(N)CC3)c2-c2nc3ccc(Cl)cc3[nH]2)C(C)C)c(O[C@@H]2O[C@H](C(=O)NCCCCCNC(=O)CCCCc3ccc(I)cc3)[C@@H](O)[C@H](O)[C@H]2O)c1)C(C)C` [Compound 225]: the EC50 in assay [1] was found to be 0.26 nM; in assay [2], 1.9 nM; in assay [3] it was 18 nM.

On to `CC[C@H](C)[C@@H]([C@@H](CC(=O)N1CCC[C@H]1[C@H](OC)[C@@H](C)C(=O)N[C@H](C)[C@@H](O)c1ccccc1)OC)N(C)C(=O)[C@@H](NC(=O)C(C(C)C)N(C)C(=O)OCc1ccc(NC(=O)[C@H](CCCNC(N)=O)NC(=O)[C@@H](NC(=O)CCOCCC(=O)NCCNc2ncc(-c3cc(C)cc(F)c3)c(N3CCC(N)CC3)c2-c2nc3ccc(Cl)cc3[nH]2)C(C)C)c(O[C@@H]2O[C@H](C(=O)N3CCCCC3)[C@@H](O)[C@H](O)[C@H]2O)c1)C(C)C` (stereo partly drawn) [Compound 228], for which the figures for the EC50 in assay [1], in assay [2] and in assay [3] were 0.26 nM, 10 nM and 36 nM, respectively.

As for `CC[C@H](C)[C@@H]([C@@H](CC(=O)N1CCC[C@H]1[C@H](OC)[C@@H](C)C(=O)N[C@H](C)[C@@H](O)c1ccccc1)OC)N(C)C(=O)[C@@H](NC(=O)[C@H](C(C)C)N(C)C(=O)OCc1ccc(NC(=O)[C@H](CCCNC(N)=O)NC(=O)[C@@H](NC(=O)CCOCCC(=O)NCCNc2ncc(-c3cc(C)cc(F)c3)c(N3CCC(N)CC3)c2-c2nc3ccc(Cl)cc3[nH]2)C(C)C)c(OC)c1)C(C)C` [Compound 11], the EC50 amounted to 0.33 nM in assay [1], 10 nM in assay [2] and 14 nM in assay [3].

As to `CC[C@H](C)[C@@H]([C@@H](CC(=O)N1CCC[C@H]1[C@H](OC)[C@@H](C)C(=O)N[C@H](C)[C@@H](O)c1ccccc1)OC)N(C)C(=O)[C@@H](NC(=O)[C@H](C(C)C)N(C)C(=O)OCc1ccc(NC(=O)[C@H](CCCNC(N)=O)NC(=O)[C@@H](NC(=O)CN(C)C(=O)CCOCCC(=O)NCCNc2ncc(-c3cc(C)cc(F)c3)c(N3CCC(N)CC3)c2-c2nc3ccc(Cl)cc3[nH]2)C(C)C)c(OCC(N)=O)c1)C(C)C` [Compound 20], the EC50 in assay [1] was 0.093 nM; in assay [2], 7 nM; in assay [3], 29 nM.

For the compound `CC[C@H](C)[C@@H]([C@@H](CC(=O)N1CCC[C@H]1[C@H](OC)[C@@H](C)C(=O)N[C@H](C)[C@@H](O)c1ccccc1)OC)N(C)C(=O)[C@@H](NC(=O)[C@H](C(C)C)N(C)C(=O)OCc1ccc(NC(=O)[C@H](CCCNC(N)=O)NC(=O)[C@@H](NC(=O)CCOCCC(=O)NCCNc2ncc(-c3cc(C)cc(F)c3)c(N3CCC(N)CC3)c2-c2nc3ccc(Cl)cc3[nH]2)C(C)C)c(O[C@@H]2O[C@H](C(=O)NCCOCCC(=O)O)[C@@H](O)[C@H](O)[C@H]2O)c1)C(C)C` [Compound 230], the EC50 came to 0.095 nM in assay [1], 4.2 nM in assay [2] and 14 nM in assay [3].

Consider `CC[C@H](C)[C@@H]([C@@H](CC(=O)N1CCC[C@H]1[C@H](OC)[C@@H](C)C(=O)N[C@H](C)[C@@H](O)c1ccccc1)OC)N(C)C(=O)[C@@H](NC(=O)[C@H](C(C)C)N(C)C(=O)OCc1ccc(NC(=O)[C@H](C)NC(=O)[C@@H](NC(=O)CCOCCC(=O)NCCNc2ncc(-c3cc(C)cc(F)c3)c(N3CCC(N)CC3)c2-c2cc3ccc(C#N)cc3[nH]2)C(C)C)c(O[C@@H]2O[C@H](C(=O)O)[C@@H](O)[C@H](O)[C@H]2O)c1)C(C)C` [Compound 119], for which the EC50 in assay [1] worked out at 0.11 nM; in assay [2], 11 nM; in assay [3], 34 nM.
